The values below come from PubChem BioAssay AID306 (DTP/NCI, 2004).

For this test, the system named is BDF1 mice, L1210 Methyl-GAG-resistant leukemia, survival T/C. Nature of the test: NCI In Vivo Anticancer Drug Screen. Data for tumor model L1210 Leukemia resistant to Methyl-GAG; NSC 32946 (subcutaneous) in B6D2F1 (BDF1) mice. The settings on record: endpoint: mean survival time, higher = longer survival. The method, then: The antitumor activity of compounds was measured in mice bearing transplantable tumors. Survival or tumor size were measured and the results are expressed as the measurement made in the treated group (T) divided by the measurement made in the vehicle treated control group (C). The tumor model used in this assay is L1210 Leukemia resistant to Methyl-GAG; NSC 32946 (subcutaneous) in B6D2F1 (BDF1) mice

The mark [1] stands for this setting: dose: 1.0 mg/kg/injection, schedule: Q01DX Z (ip), vehicle: carboxymethylcellulose (CMC).
Where [2] appears, read: dose: 63.0 micrograms/kg/injection, schedule: Q01DX Z (ip), vehicle: carboxymethylcellulose (CMC).
[3] abbreviates: dose: 125.0 micrograms/kg/injection, schedule: Q01DX Z (ip), vehicle: carboxymethylcellulose (CMC).
The mark [4] stands for this setting: dose: 8.0 mg/kg/injection, schedule: Q01DX Z (ip), vehicle: carboxymethylcellulose (CMC).
Setting [5] is: dose: 1.9 mg/kg/injection, schedule: Q01DX Z (ip), vehicle: carboxymethylcellulose (CMC).
The mark [6] stands for this setting: dose: 7.5 mg/kg/injection, schedule: Q01DX Z (ip), vehicle: carboxymethylcellulose (CMC).
The mark [7] stands for this setting: dose: 31.0 mg/kg/injection, schedule: Q01DX Z (ip), vehicle: carboxymethylcellulose (CMC).

Where “and” joins values, the source holds several entries; their conditions need not be identical. Equal values may be shown once. Toxic doses and inconclusive results are not listed.

As for `CCN(CC)CCNc1ccc(C)c2sc3ccccc3c(=O)c12`, the T/C is, setting by setting: (dose: 1.56 mg/kg/injection, schedule: Q01DX Z (ip), vehicle: methylcellulose (MC)) 97 % of control; (dose: 6.25 mg/kg/injection, schedule: Q01DX Z (ip), vehicle: methylcellulose (MC)) 102 % of control; (dose: 12.5 mg/kg/injection, schedule: Q01DX Z (ip), vehicle: methylcellulose (MC)) 104 % of control; (dose: 25.0 mg/kg/injection, schedule: Q01DX Z (ip), vehicle: methylcellulose (MC)) 103 % of control and 113 % of control; (dose: 50.0 mg/kg/injection, schedule: Q01DX Z (ip), vehicle: methylcellulose (MC)) 119 % of control; (dose: 100.0 mg/kg/injection, schedule: Q01DX Z (ip), vehicle: methylcellulose (MC)) 151 % of control.

With `O[C@H](CN1CC1)[C@@H](O)CN1CC1`, the T/C reads like this: (dose: 0.06 mg/kg/injection, schedule: Q01DX Z (ip), vehicle: carboxymethylcellulose (CMC)) 97 % of control; (dose: 0.12 mg/kg/injection, schedule: Q01DX Z (ip), vehicle: carboxymethylcellulose (CMC)) 110 % of control; (dose: 0.5 mg/kg/injection, schedule: Q01DX Z (ip), vehicle: carboxymethylcellulose (CMC)) 170 % of control and 178 % of control; under setting [1], 100 % of control; under setting [2], 101 % of control; under setting [3], 109 % of control.

In the case of `N#Cc1cn(C2OC(CO)C(O)C2O)c2ncnc(N)c12` (configuration not stated), the T/C was 96 % of control under setting [2]; 102 % of control under setting [3]; 115 % of control (dose: 250.0 micrograms/kg/injection, schedule: Q01DX Z (ip), vehicle: carboxymethylcellulose (CMC)); 93 % of control (dose: 500.0 micrograms/kg/injection, schedule: Q01DX Z (ip), vehicle: carboxymethylcellulose (CMC)).

Turning to `COS(C)(=O)=O`, the T/C is, setting by setting: (dose: 12.5 mg/kg/injection, schedule: Q01DX Z (ip), vehicle: water) 101 % of control; (dose: 25.0 mg/kg/injection, schedule: Q01DX Z (ip), vehicle: water) 98 % of control and 99 % of control; (dose: 50.0 mg/kg/injection, schedule: Q01DX Z (ip), vehicle: water) 103 % of control and 112 % of control.

With `Cn1cnc([N+](=O)[O-])c1Sc1nc(N)nc2nc[nH]c12`, the T/C is, setting by setting: under setting [1], 98 % of control; (dose: 2.0 mg/kg/injection, schedule: Q01DX Z (ip), vehicle: carboxymethylcellulose (CMC)) 106 % of control; (dose: 4.0 mg/kg/injection, schedule: Q01DX Z (ip), vehicle: carboxymethylcellulose (CMC)) 162 % of control; under setting [4], 88 % of control.

As to `Oc1cc(CN(CCCl)CCCl)c(O)cc1CN(CCCl)CCCl`, the T/C reads like this: (dose: 1.88 mg/kg/injection, schedule: Q01DX Z (sc), vehicle: steriod suspending solution) 103 % of control; (dose: 3.75 mg/kg/injection, schedule: Q01DX Z (sc), vehicle: steriod suspending solution) 111 % of control; (dose: 7.5 mg/kg/injection, schedule: Q01DX Z (sc), vehicle: steriod suspending solution) 115 % of control.

`[I][Hg][CH2]C1COC([CH2][Hg][I])CO1` (configuration not stated): the T/C by setting is: under setting [5], 102 % of control; (dose: 3.75 mg/kg/injection, schedule: Q01DX Z (ip), vehicle: carboxymethylcellulose (CMC)) 95 % of control; under setting [6], 102 % of control; (dose: 15.0 mg/kg/injection, schedule: Q01DX Z (ip), vehicle: carboxymethylcellulose (CMC)) 113 % of control; (dose: 30.0 mg/kg/injection, schedule: Q01DX Z (ip), vehicle: carboxymethylcellulose (CMC)) 150 % of control; (dose: 60.0 mg/kg/injection, schedule: Q01DX Z (ip), vehicle: carboxymethylcellulose (CMC)) 107 % of control.

`C1CN1c1nc(N2CC2)nc(N2CC2)n1`: the T/C is 96 % of control (dose: 62.5 micrograms/kg/injection, schedule: Q01DX Z (ip), vehicle: saline); 97 % of control (dose: 250.0 micrograms/kg/injection, schedule: Q01DX Z (ip), vehicle: saline); 110 % of control (dose: 1000.0 micrograms/kg/injection, schedule: Q01DX Z (ip), vehicle: saline).

Consider `C=CC(CN1CC1)OC(C)=O` (configuration not stated), for which the T/C is 100 % of control (dose: 0.95 mg/kg/injection, schedule: Q01DX Z (ip), vehicle: carboxymethylcellulose (CMC)); 118 % of control under setting [5]; 118 % of control (dose: 3.8 mg/kg/injection, schedule: Q01DX Z (ip), vehicle: carboxymethylcellulose (CMC)); 120 % of control under setting [6].

Regarding `CN(N=O)C(N)=O`, the T/C is 97 % of control (dose: 3.2 mg/kg/injection, schedule: Q01DX Z (ip), vehicle: saline); 113 % of control (dose: 6.3 mg/kg/injection, schedule: Q01DX Z (ip), vehicle: saline); 115 % of control (dose: 12.5 mg/kg/injection, schedule: Q01DX Z (ip), vehicle: saline); 178 % of control (dose: 25.0 mg/kg/injection, schedule: Q01DX Z (ip), vehicle: saline).

For `Nc1nc(N)c2nc(CNc3ccc(C(=O)NC(CCC(=O)O)C(=O)O)cc3)cnc2n1` (configuration not stated), the T/C is 98 % of control (dose: 2.0 micrograms/kg/injection, schedule: Q01DX Z (ip), vehicle: alkali diluted with saline); 100 % of control (dose: 4.0 micrograms/kg/injection, schedule: Q01DX Z (ip), vehicle: alkali diluted with saline); 110 % of control (dose: 16.0 micrograms/kg/injection, schedule: Q01DX Z (ip), vehicle: alkali diluted with saline); 88 % of control (dose: 31.0 micrograms/kg/injection, schedule: Q01DX Z (ip), vehicle: alkali diluted with saline); 187 % of control (dose: 63.0 micrograms/kg/injection, schedule: Q01DX Z (ip), vehicle: alkali diluted with saline); 94 % of control (dose: 125.0 micrograms/kg/injection, schedule: Q01DX Z (ip), vehicle: alkali diluted with saline).

In the case of `O=c1cnn(C2OC(CO)C(O)C2O)c(=O)[nH]1` (configuration not stated), the T/C (dose: 8.0 mg/kg/injection, schedule: Q01DX Z (ip), vehicle: water) is 112 % of control; the T/C (dose: 16.0 mg/kg/injection, schedule: Q01DX Z (ip), vehicle: water) was 122 % of control; the T/C (dose: 1000.0 mg/kg/injection, schedule: Q01DX Z (ip), vehicle: water) is 110 % of control.

In the case of `CC[C@@H](c1ccc(O)cc1)[C@@H](CC)c1ccc(O)cc1`, the T/C is 96 % of control (dose: 16.0 mg/kg/injection, schedule: Q01DX Z (sc), vehicle: steriod suspending solution); 96 % of control (dose: 32.0 mg/kg/injection, schedule: Q01DX Z (sc), vehicle: steriod suspending solution); 100 % of control (dose: 62.5 mg/kg/injection, schedule: Q01DX Z (sc), vehicle: steriod suspending solution); 100 % of control (dose: 125.0 mg/kg/injection, schedule: Q01DX Z (sc), vehicle: steriod suspending solution); 108 % of control (dose: 250.0 mg/kg/injection, schedule: Q01DX Z (sc), vehicle: steriod suspending solution); 98 % of control and 101 % of control (dose: 500.0 mg/kg/injection, schedule: Q01DX Z (sc), vehicle: steriod suspending solution). In addition, the T/C (dose: 1000.0 mg/kg/injection, schedule: Q01DX Z (sc), vehicle: steriod suspending solution) is 95 % of control.

For the compound `O=c1[nH]c(=O)n(C2CC(O)C(CO)O2)cc1Br` (configuration not stated), the T/C is, setting by setting: under setting [7], 95 % of control; (dose: 63.0 mg/kg/injection, schedule: Q01DX Z (ip), vehicle: carboxymethylcellulose (CMC)) 92 % of control; (dose: 125.0 mg/kg/injection, schedule: Q01DX Z (ip), vehicle: carboxymethylcellulose (CMC)) 113 % of control; (dose: 500.0 mg/kg/injection, schedule: Q01DX Z (ip), vehicle: carboxymethylcellulose (CMC)) 118 % of control; (dose: 1000.0 mg/kg/injection, schedule: Q01DX Z (ip), vehicle: carboxymethylcellulose (CMC)) 120 % of control.

`C[n+]1c2ccccc2nc2c(N)cc(N)cc21`: the T/C runs as follows: (dose: 1.6 mg/kg/injection, schedule: Q01DX Z (ip), vehicle: carboxymethylcellulose (CMC)) 101 % of control; (dose: 3.1 mg/kg/injection, schedule: Q01DX Z (ip), vehicle: carboxymethylcellulose (CMC)) 102 % of control; (dose: 6.3 mg/kg/injection, schedule: Q01DX Z (ip), vehicle: carboxymethylcellulose (CMC)) 98 % of control and 104 % of control; (dose: 12.5 mg/kg/injection, schedule: Q01DX Z (ip), vehicle: carboxymethylcellulose (CMC)) 104 % of control; (dose: 25.0 mg/kg/injection, schedule: Q01DX Z (ip), vehicle: carboxymethylcellulose (CMC)) 104 % of control.

Take `CCn1cnc2c(=S)nc[nH]c21`: the T/C under setting [4] was 113 % of control; the T/C (dose: 16.0 mg/kg/injection, schedule: Q01DX Z (ip), vehicle: carboxymethylcellulose (CMC)) was 106 % of control; the T/C under setting [7] is 120 % of control.
